Where a SMILES comes first, the peptide text is derived from it. Bridges are numbered along the chain shown (N, C = ends). [ ]: non-standard residue; d: D form. Cha = N[C@@H](CC1CCCCC1)C(=O)O; S5 = C=CCCC[C@](C)(N)C(=O)O
Assays:
MDA-MB-231-RFP cells = test: Pulmonary metastasis model in mice; format: in vivo, BALB/c-nude mice; conditions: cells treated with 100 μM for 12 hours, intravenously injected, flow cytometry of lungs after two weeks
Method: It was confirmed whether ND1-YL2 could inhibit cancer metastasis through mice model. MDA-MB-231-RFP cells expressing red fluorescent protein (RFP) were cultured in DMEM (Welgene) containing 10% FBS (Omega Scientific Inc.) under the conditions of 37° C. and 5% CO2. 5-week-old BALB/c-nude mice (OriententBio Inc.) were maintained in a sterile environment and had free access to food and water. All animal procedures were approved by the Organ Animal Care and Use Committee of POSTECH. For the pulmonary metastasis model, MDA-MB-231-RFP cells treated with DMSO or 100 μM of ND1-YL2 for 12 hours were intravenously injected at 10^6 cells per mouse, followed by […]. The lungs were harvested and prepared in a single cell suspension and filtered through a 100 μm cell strainer (Corning). It was further cultured for 2 minutes in ACK lysis buffer (Gibco). The samples were analyzed by LSR Fortessa (BD Biosciences). […] To visualize lung metastasis, lung sections were prepared and dyed with Haemotoxylin and Eosin (H&E) stain.

MDA-MB-231 = test: Cell viability assay; format: cell-based, human; conditions: MDA-MB-231, various concentrations, 48 hours
Method: (§1) To further confirm the above results, an MTT cell viability assay was performed. MDA-MB-231 (1×10^4 cells/well), HEK293T (1×10^4 cells/well) and Colo205 (2×10^4 cells/well) cells were seeded in a 96-well plate, and cultured under the conditions of 37° C. and 5% carbon dioxide. After 24 hours, the cells were washed twice with DPBS and treated with DMSO or various concentrations of ND1-YL2 in Opti-MEM medium for 48 hours. Cell viability was measured by the Cyto X cell viability assay kit (LPS solution) according to the manufacturer's instructions.

Colo205 = test: Cell viability assay; format: cell-based, human; conditions: Colo205, various concentrations, 48 hours
Method: as §1

HEK293T = test: Cell viability assay; format: cell-based; conditions: various concentrations, 48 hours
Method: as §1

SRC-1 = SRC-1 (Homo sapiens, UniProt Q15788); test: SRC-1 expression level in MDA-MB-231 cells by Western blot; format: cell-based; parameters: endogenous in cells; host or cells: MDA-MB-231
Chain of SRC-1 (Q15788 whole entry): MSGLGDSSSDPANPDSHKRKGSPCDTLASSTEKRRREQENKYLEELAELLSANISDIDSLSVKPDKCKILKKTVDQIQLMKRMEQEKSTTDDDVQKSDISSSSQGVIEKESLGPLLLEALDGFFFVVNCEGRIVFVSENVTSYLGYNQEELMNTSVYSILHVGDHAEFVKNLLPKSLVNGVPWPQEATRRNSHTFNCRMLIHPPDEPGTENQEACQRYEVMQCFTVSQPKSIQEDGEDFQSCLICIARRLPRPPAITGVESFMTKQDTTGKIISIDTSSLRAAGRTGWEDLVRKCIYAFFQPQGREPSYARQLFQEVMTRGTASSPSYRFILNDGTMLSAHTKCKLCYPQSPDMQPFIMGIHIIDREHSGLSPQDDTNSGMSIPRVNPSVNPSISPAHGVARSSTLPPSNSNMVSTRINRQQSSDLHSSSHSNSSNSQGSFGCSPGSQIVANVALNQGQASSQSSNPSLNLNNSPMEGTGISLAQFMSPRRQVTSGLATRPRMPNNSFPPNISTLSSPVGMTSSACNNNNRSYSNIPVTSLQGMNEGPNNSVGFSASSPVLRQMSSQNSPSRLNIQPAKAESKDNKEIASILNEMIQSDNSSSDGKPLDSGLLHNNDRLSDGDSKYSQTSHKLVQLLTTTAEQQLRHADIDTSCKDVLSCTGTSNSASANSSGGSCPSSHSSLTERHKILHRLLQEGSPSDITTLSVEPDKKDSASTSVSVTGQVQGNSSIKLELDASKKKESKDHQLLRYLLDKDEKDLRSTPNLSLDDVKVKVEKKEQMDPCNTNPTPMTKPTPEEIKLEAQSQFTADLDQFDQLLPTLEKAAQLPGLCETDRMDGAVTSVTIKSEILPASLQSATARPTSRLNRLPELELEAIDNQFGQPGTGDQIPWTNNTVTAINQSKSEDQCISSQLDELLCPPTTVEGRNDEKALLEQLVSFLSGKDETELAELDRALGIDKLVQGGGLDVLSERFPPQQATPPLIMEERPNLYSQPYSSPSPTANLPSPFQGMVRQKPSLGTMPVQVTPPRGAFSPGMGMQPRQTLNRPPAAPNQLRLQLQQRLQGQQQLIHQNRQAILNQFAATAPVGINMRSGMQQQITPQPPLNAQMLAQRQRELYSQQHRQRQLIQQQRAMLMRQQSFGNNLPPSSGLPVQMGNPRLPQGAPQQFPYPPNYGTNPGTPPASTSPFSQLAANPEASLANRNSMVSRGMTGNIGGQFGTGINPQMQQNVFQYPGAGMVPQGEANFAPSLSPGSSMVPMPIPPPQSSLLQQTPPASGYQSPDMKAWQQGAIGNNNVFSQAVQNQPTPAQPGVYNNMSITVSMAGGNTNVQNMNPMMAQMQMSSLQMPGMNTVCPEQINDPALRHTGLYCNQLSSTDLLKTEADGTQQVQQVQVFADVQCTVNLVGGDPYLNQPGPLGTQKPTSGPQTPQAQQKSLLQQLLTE

MDA-MB-231 cells = test: Matrigel invasion assay; format: cell-based, human; conditions: 24 hours; ND1-YL2 various concentrations, YL2 and RLAA 20 μM
Method: The inhibition of cell migration may be due to the inhibitory effect of ND1-YL2 on cell growth. In order to exclude this possibility, the invasive ability of cells treated with ND1-YL2 was confirmed. A Corning Matrigel insert (Corning) was placed in a 24-well plate. After hydrating the Matrigel insert with an FBS-free DMEM medium for 2 hours in a CO2 incubator, MDA-MB-231 cells were cultured in the Matrigel insert (4×10^4 cells/insert) with 125 μL of Opti-MEM medium. Another 125 μl of compound containing Opti-MEM medium was added to the insert. The lower chamber was filled with 500 μL of DMEM medium containing 10% FBS. The Matrigel chamber was cultured for 24 hours under the conditions of 37° C. and 5% CO2. The cell culture media of the upper and lower chambers were removed and washed three times with cold DPBS. Non-invasive cells were then removed with a cotton swab. The bottom of the chamber was fixed with 4% formaldehyde for 10 minutes at room temperature, and stained with Hoechst 33342 (5 μg/mL) for 5 minutes in a CO2 incubator. After washed with DPBS, images of infiltrated cells were obtained by a fluorescence microscope. The percentage of the invasive cells was calculated using the product manual. MDA-MB-231 cells were treated with various concentrations of ND1-YL2, N-degron (20 μM) or YL2 (20 μM). After 24 hours, images of the invaded cells were obtained by a fluorescence microscope, and the number of invaded cells was quantified through the images. […] The inhibitory activity of ND1-YL2 on cell migration and invasion is in good agreement with previous SRC-1 knockdown experiments.

In the case of `CC(C)C[C@H](NC(=O)[C@H](C)NC(=O)[C@H](C)NC(=O)[C@H](C)NC(=O)[C@H](C)NC(=O)[C@H](CC(C)C)NC(=O)[C@@H](N)CCCNC(=N)N)C(=O)N[C@@H](CC(C)C)C(=O)N1CCC[C@H]1C(=O)N1CCC[C@H]1C(=O)N[C@H](C(=O)N[C@@H](CCC(=O)O)C(=O)N[C@@H](CCC(N)=O)C(=O)N[C@@H](CC(=O)O)C(=O)N[C@@H](CC(C)C)C(=O)N[C@@]1(C)CCC/C=C\CCC[C@@](C)(C(=O)N[C@@H](Cc2ccc(O)cc2)C(N)=O)NC(=O)[C@H](CC2CCCCC2)NC(=O)[C@H](CC(C)C)NC(=O)[C@H](CCCCN)NC1=O)[C@@H](C)O` [ND1-YL2] (H-RLAAAALLPPTEQDL[S5]KL[Cha][S5]Y-NH2; staple (Z) 16-20), the “Reduction of infiltrated MDA-MB-231-RFP cells in lungs compared to vehicle samples” value (MDA-MB-231-RFP cells) is reported as 40%, the “Effect on cell survival” value (MDA-MB-231) is reported as “did not significantly affect the survival” and the “Effect on cell survival” value (Colo205) is reported as “did not significantly affect the survival”. The “Effect on cell survival” value (HEK293T) was “did not significantly affect the survival”, the “Selective degradation of SRC-1 over SRC-3” value (SRC-1; 20 μM) was “selectively degraded only SRC-1” and the “Time after treatment at which SRC-1 degradation was evident” value (SRC-1; 20 μM) was 8 h. For the same molecule, the “Time for which SRC-1 degradation was maintained without detectable recovery” value (SRC-1; 20 μM) was 24 h, the “SRC-1 degradation, single agents compared” value (SRC-1; 20 μM, 12 hours) was “degradation of SRC-1 appeared only in ND1-YL2” and the “Time to restoration of SRC-1 expression to the original level after removal of compound” value (SRC-1; 20 μM, after washing) was no more than 12 h. For the same molecule, the SRC-1 degradation (SRC-1; various concentrations, Western blot) was “strongest activity among the synthesized and treated compounds”, the DC50 (SRC-1; various concentrations, Western blot, read-out: DC50 for reduction of SRC-1 expression level) was roughly 10 µM and the “SRC-1 degradation when treated together with MG-132” value (SRC-1; with proteasome inhibitor MG-132 (5 μM), 12 hours) was “did not show the effect of degrading SRC-1”. The “Effect on cell invasion” value (MDA-MB-231 cells) was “cell invasion decreased as the treatment concentration of ND1-YL2 increased”.
